Patent US20100190849A1, “Novel Clerodanes and Methods for Repelling Arthropods” (priority 2006, published 2010)
Marks after values point to notes of the source that are not given here.

What was measured:
Type in all cases: in vivo
[1] = test system: hybrid (S. invicta×S. richteri); test: Two-choice digging bioassay, head-to-head against octanoic acid; conditions: 25.00 ppm; all hybrid colonies; FIG. 4
Description: (§1) The repellency of the two terpenoids, callicarpenal and intermedeol, against workers of red imported fire ants, Solenopsis invicta Buren, black imported fire ants, Solenopsis rickeri Forel, and a hybrid of these two species was evaluated using multiple-choice digging bioassays (Tables 9 & 10). […] Callicarpenal and intermedeol were compared with octanoic acid, a known fire ant repellant, at the 25.00 ppm level using two-choice digging bioassays (FIGS. 3 and 4).
Head-to-head comparison on repellency of callicarpenal and intermedeol against octanoic acid: The bioassay apparatus was similar as described above, except a smaller Petri dish (8.7×2.3 cm) was used and only two choices were presented: one was sand treated with callicarpenal or intermedeol and the other with octanoic acid. Two choices were opposite each other across the center of the Petri dish and each was 3.0 cm away from the center. All compounds were tested at a 25.00 ppm level. Sand preparation was similar as described above. Ants from the same colonies as above were used in this experiment. There were five replications for each pair of comparisons. A paired t-test (critical P-value=0.05) was used to compare the mean amount of sand removed between two tubes.

[2] = test system: red imported fire ants, Solenopsis invicta Buren; test: Multiple-choice digging bioassay, fire ant workers
Description: as §1
(§2) Ants: Two Solenopsis invicta colonies were collected in Sharkey County, Mississippi, and two Solenopsis richteri colonies were collected in Granada County, Mississippi. Two colonies of the hybrid (S. invicta×S. richteri) colony were collected in Sunflower County, Mississippi. Fire ant mounds were shoveled and placed in 19-L plastic buckets. The inside wall of the bucket was then coated with baby powder (Cumberland Swan Holdings, Inc., Smyrna, Tenn.) to prevent ant escape. Following the water-drip method developed by Bank et al. (Banks, W. A., et al., Techniques for collecting, rearing, and handling imported fire ants, USDA SEA AATS-S-21 (1981)), ants were separated and then placed in a 44.5×60.0×13.0 cm plastic tray with inside walls coated with Fluon® (Ag Fluoropolymers, Chadds Ford, Pa.). Distilled water and 15% (w/v) sucrose water solution in separated test tubes which were plugged with cotton balls were placed in the trays. Heliocoverpa zea (Boddie) and tobacco budworm, Heliothis virescens (Fabricius) pupae were used as food sources. Inside each tray were one to three 14.0×2.0 cm Petri dishes with 1.0 cm of hardener dental plaster (Castone®; Dentsply International Inc. York, Pa.) on the bottom. Also, in the center of the Petri dish was a 5.0-cm diameter brood chamber. Two 8-mm access holes were made on the wall of the petri dish above the dental plaster. The Petri dish lid was painted black (1302 Gloss Black Spray Enamel, Louisville, Ky.)to block the light. All colonies were maintained at 22-25° C.
(§3) Fire ant workers dug and removed sand from the tube through the entry hole. The differences in the amount of removed sand among treated and control tubes were used to evaluate chemical repellency. Four 2 ml centrifuge tubes were mounted under a 14.0×2.3 cm Petri dish using glue (Arrow Fastener Co., inc., Saddle Brook, N.J.). Tubes were 5.0 cm away from the center of the Petri dish and at equal distance from each other. A 3-mm diameter access hole was drilled for each centrifuge tube, which went through the bottom of the Petri dish and the cap of the tube. The inner side of the Petri dish was coated with Fluon. Three concentrations of a test compound and one control were set up in each apparatus. Six concentrations, including […], 6.25, 12.50, and 25.00 ppm, were tested in two separated bioassays for each species and hybrid; however three more concentrations of callicarpenal, 50.00, 100.00, and […], were tested for S. invicta. Sand (Premium Play Sand, Plassein International, Longview, Tex.) was first sieved through a ™35 U.S.A. standard testing sieve (Thomas Scientific, Swedesboro, N.J.) and then washed with distilled water and dried at 350° C. for 12 h. A 3 ml dichloromethane solution of callicarpenal or intermedeol was mixed with 30 g sand in an aluminum pan. The sand was stirred every 2 min to facilitate the evaporation of the solvent under a fume hood. After dichloromethane evaporated (5 minutes), 1.92 ml distilled water was added and mixed with sand. Sand in the control tube was treated only with dichloromethane. In each tube a mean (±SD) 2.78 g (±0.06 g) wet sand was added. There was no open space inside the tube. Locations of each concentration were randomized. Fifty fire ant workers were introduced into the center of the Petri Dish. The experiment was conducted at 22±0.8° C. (mean±SD) temperature and 45.4%±11.87% relative humidity. After 24 h, sand in each vial was collected, dried at 150° C. for at least 4 hour, and weighed. […]

[3] = test system: black imported fire ants, Solenopsis richteri Forel; test: Multiple-choice digging bioassay, fire ant workers
Description: as §1, §2, §3

[4] = test system: hybrid (S. invicta×S. richteri); test: Multiple-choice digging bioassay, fire ant workers
Description: as §1, §2, §3

**Q.** For `C=C(C)C1CCC2(C)CCCC(C)(O)C2C1` [intermedeol, (4S,5S,7R,10S)-eudesm-11-en-4-ol], which “repellency compared with octanoic acid (in words)” value [1] is on record?
**A.** The value was “significantly greater repellency than octanoic acid”.

**Q.** What about the “Sand removed (SE), mean weight of sand removed by ants 24 h after release” value (“Sand removed (SE), mean weight” for short) ([2]; S. invicta colony 1, Exp. 15, 0.75 ppm) of the same molecule?
**A.** Its value is 0.56 (0.06) g.

**Q.** And the “Sand removed (SE), mean weight” value ([2]; S. invicta colony 1, Exp. 15, 1.50 ppm)?
**A.** Its value is 0.36 (0.09)* g.

**Q.** What about the “Sand removed (SE), mean weight” value ([2]; S. invicta colony 1, Exp. 15, 3.15 ppm) of the same molecule?
**A.** The value was 0.20 (0.06)* g.

**Q.** What about the “Sand removed (SE), mean weight” value ([2]; S. invicta colony 1, Exp. 16, 6.25 ppm) of the same molecule?
**A.** Its value is 0.66 (0.15)* g.

**Q.** What about the “Sand removed (SE), mean weight” value ([2]; S. invicta colony 1, Exp. 16, 12.50 ppm) of the same molecule?
**A.** The value was 0.25 (0.13)* g.

**Q.** And the “Sand removed (SE), mean weight” value ([2]; S. invicta colony 1, Exp. 16, 25.00 ppm)?
**A.** The value was 0.18 (0.09)* g.

**Q.** And the “Sand removed (SE), mean weight” value ([2]; S. invicta colony 2, Exp. 17, 0.75 ppm)?
**A.** The value was 0.44 (0.10)* g.

**Q.** And the “Sand removed (SE), mean weight” value ([2]; S. invicta colony 2, Exp. 17, 1.50 ppm)?
**A.** The value was 0.35 (0.08)* g.

**Q.** What about the “Sand removed (SE), mean weight” value ([2]; S. invicta colony 2, Exp. 17, 3.15 ppm) of the same molecule?
**A.** Its value is 0.35 (0.12)* g.

**Q.** What about the “Sand removed (SE), mean weight” value ([2]; S. invicta colony 2, Exp. 18, 6.25 ppm) of the same molecule?
**A.** Its value is 0.17 (0.08)* g.

**Q.** And the “Sand removed (SE), mean weight” value ([2]; S. invicta colony 2, Exp. 18, 12.50 ppm)?
**A.** Its value is 0.02 (0.01)* g.

**Q.** And the “Sand removed (SE), mean weight” value ([2]; S. invicta colony 2, Exp. 18, 25.00 ppm)?
**A.** The value was 0.04 (0.01)* g.

**Q.** What about the “Sand removed (SE), mean weight” value ([3]; S. richteri colony 1, Exp. 19, 0.75 ppm) of the same molecule?
**A.** The value was 0.10 (0.06) g.

**Q.** And the “Sand removed (SE), mean weight” value ([3]; S. richteri colony 1, Exp. 19, 1.50 ppm)?
**A.** The value was 0.46 (0.18) g.

**Q.** What about the “Sand removed (SE), mean weight” value ([3]; S. richteri colony 1, Exp. 19, 3.15 ppm) of the same molecule?
**A.** Its value is 0.24 (0.11) g.

**Q.** What about the “Sand removed (SE), mean weight” value ([3]; S. richteri colony 1, Exp. 20, 6.25 ppm) of the same molecule?
**A.** The value was 0.16 (0.10)* g.

**Q.** And the “Sand removed (SE), mean weight” value ([3]; S. richteri colony 1, Exp. 20, 12.50 ppm)?
**A.** Its value is 0.07 (0.04)* g.

**Q.** And the “Sand removed (SE), mean weight” value ([3]; S. richteri colony 1, Exp. 20, 25.00 ppm)?
**A.** Its value is 0.04 (0.01)* g.

**Q.** What about the “Sand removed (SE), mean weight” value ([3]; S. richteri colony 2, Exp. 21, 0.75 ppm) of the same molecule?
**A.** Its value is 0.16 (0.12) g.

**Q.** And the “Sand removed (SE), mean weight” value ([3]; S. richteri colony 2, Exp. 21, 1.50 ppm)?
**A.** The value was 0.26 (0.17) g.

**Q.** And the “Sand removed (SE), mean weight” value ([3]; S. richteri colony 2, Exp. 21, 3.15 ppm)?
**A.** Its value is 0.17 (0.16) g.

**Q.** And the “Sand removed (SE), mean weight” value ([3]; S. richteri colony 2, Exp. 22, 6.25 ppm)?
**A.** The value was 0.02 (0.01)* g.

**Q.** And the “Sand removed (SE), mean weight” value ([3]; S. richteri colony 2, Exp. 22, 12.50 ppm)?
**A.** The value was 0.14 (0.07)* g.

**Q.** And the “Sand removed (SE), mean weight” value ([3]; S. richteri colony 2, Exp. 22, 25.00 ppm)?
**A.** The value was 0.02 (0.02)* g.

**Q.** What about the “Sand removed (SE), mean weight” value ([4]; Hybrid colony 1, Exp. 23, 0.75 ppm) of the same molecule?
**A.** The value was 0.43 (0.15) g.

**Q.** And the “Sand removed (SE), mean weight” value ([4]; Hybrid colony 1, Exp. 23, 1.50 ppm)?
**A.** The value was 0.10 (0.03)* g.

**Q.** What about the “Sand removed (SE), mean weight” value ([4]; Hybrid colony 1, Exp. 23, 3.15 ppm) of the same molecule?
**A.** The value was 0.10 (0.03)* g.

**Q.** What about the “Sand removed (SE), mean weight” value ([4]; Hybrid colony 1, Exp. 24, 6.25 ppm) of the same molecule?
**A.** The value was 0.45 (0.08)* g.

**Q.** And the “Sand removed (SE), mean weight” value ([4]; Hybrid colony 1, Exp. 24, 12.50 ppm)?
**A.** The value was 0.37 (0.04)* g.

**Q.** And the “Sand removed (SE), mean weight” value ([4]; Hybrid colony 1, Exp. 24, 25.00 ppm)?
**A.** Its value is 0.20 (0.09)* g.

**Q.** And the “Sand removed (SE), mean weight” value ([4]; Hybrid colony 2, Exp. 25, 0.75 ppm)?
**A.** The value was 0.34 (0.14) g.

**Q.** What about the “Sand removed (SE), mean weight” value ([4]; Hybrid colony 2, Exp. 25, 1.50 ppm) of the same molecule?
**A.** The value was 0.25 (0.10) g.

**Q.** And the “Sand removed (SE), mean weight” value ([4]; Hybrid colony 2, Exp. 25, 3.15 ppm)?
**A.** Its value is 0.28 (0.09) g.

**Q.** And the “Sand removed (SE), mean weight” value ([4]; Hybrid colony 2, Exp. 26, 6.25 ppm)?
**A.** Its value is 0.20 (0.08)* g.

**Q.** And the “Sand removed (SE), mean weight” value ([4]; Hybrid colony 2, Exp. 26, 12.50 ppm)?
**A.** The value was 0.10 (0.04)* g.

**Q.** What about the “Sand removed (SE), mean weight” value ([4]; Hybrid colony 2, Exp. 26, 25.00 ppm) of the same molecule?
**A.** The value was 0.04 (0.01)* g.
